According to US5672715A, “Herbicidal substituted 3-aryl-pyrazoles” (Monsanto Company, priority 1995, dated 1997):

Columns and labels:
Type in all cases: in vivo
Common Chickweed [1] = experiment: pre-emergence herbicide test; details: pre-emergence, 0.25 lb/A; read-out: % plant inhibition
In short: (§1)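 Greenhouse pan assay in which seeds lie under a treated topsoil cover; carrier was acetone or water. Inhibition (%) was recorded about 14 days post-treatment.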

Rape [2] = experiment: pre-emergence herbicide test; details: pre-emergence, 0.25 lb/A; read-out: % plant inhibition
In short: as §1

Soybean [3] = experiment: pre-emergence herbicide test; details: Glycine max, pre-emergence, 0.25 lb/A; read-out: % plant inhibition
In short: as §1

Giant Foxtail [4] = experiment: pre-emergence herbicide test; details: Setaria faberi, pre-emergence, 0.25 lb/A; read-out: % plant inhibition
In short: as §1

Downy Brome [5] = experiment: pre-emergence herbicide test; details: Bromus tectorum, pre-emergence, 0.25 lb/A; read-out: % plant inhibition
In short: as §1

Barnyardgrass [6] = experiment: pre-emergence herbicide test; details: Echinochloa crus-galli, pre-emergence, 0.25 lb/A; read-out: % plant inhibition
In short: as §1

Blackgrass [7] = experiment: pre-emergence herbicide test; details: Alopecurus myosuroides, pre-emergence, 0.25 lb/A; read-out: % plant inhibition
In short: as §1

Cocklebur [8] = experiment: pre-emergence herbicide test; details: Xanthium strumarium, pre-emergence, 0.25 lb/A; read-out: % plant inhibition
In short: as §1

Green Foxtail [9] = experiment: pre-emergence herbicide test; details: Setaria viridis, pre-emergence; 0.25 lb/A; read-out: % plant inhibition
In short: as §1

Velvetleaf [10] = experiment: pre-emergence herbicide test; details: Abutilon theophrasti, pre-emergence, 0.25 lb/A; read-out: % plant inhibition
In short: as §1

Morning Glory [11] = experiment: pre-emergence herbicide test; details: Ipomoea, pre-emergence, 0.25 lb/A; read-out: % plant inhibition
In short: as §1

Bedstraw Catchweed [12] = experiment: pre-emergence herbicide test; details: Galium aparine, pre-emergence, 0.25 lb/A; read-out: % plant inhibition
In short: as §1

Wheat [13] = experiment: pre-emergence herbicide test; details: Triticum aestivum, pre-emergence, 0.25 lb/A; read-out: % plant inhibition
In short: as §1

Seedling Johnsongrass [14] = experiment: pre-emergence herbicide test; details: Sorghum halepense, pre-emergence, 0.25 lb/A; read-out: % plant inhibition
In short: as §1

Corn [15] = experiment: pre-emergence herbicide test; details: Zea mays, pre-emergence, 0.25 lb/A; read-out: % plant inhibition
In short: as §1

Birdseye Speedwell [16] = experiment: pre-emergence herbicide test; details: pre-emergence, 0.25 lb/A; read-out: % plant inhibition
In short: as §1

Wild Oats [17] = experiment: pre-emergence herbicide test; details: Avena fatua, pre-emergence, 0.25 lb/A; read-out: % plant inhibition
In short: as §1

Common Chickweed [18] = experiment: post-emergence herbicide test; details: post-emergence, 0.25 lb/A; read-out: % plant inhibition
In short: (§2)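 Seeds sown on compacted topsoil, covered, leveled; greenhouse, overhead or subirrigation. Plants 2–3 wk old → atomizer spray, 170.3 kPa, 1870 L/Ha, ~0.4% v/v emulsifier. Readout: % inhibition.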

Rape [19] = experiment: post-emergence herbicide test; details: post-emergence, 0.25 lb/A; read-out: % plant inhibition
In short: as §2

Soybean [20] = experiment: post-emergence herbicide test; details: Glycine max, post-emergence, 0.25 lb/A; read-out: % plant inhibition
In short: as §2

Giant Foxtail [21] = experiment: post-emergence herbicide test; details: Setaria faberi, post-emergence, 0.25 lb/A; read-out: % plant inhibition
In short: as §2

Downy Brome [22] = experiment: post-emergence herbicide test; details: Bromus tectorum, post-emergence, 0.25 lb/A; read-out: % plant inhibition
In short: as §2

Barnyardgrass [23] = experiment: post-emergence herbicide test; details: Echinochloa crus-galli, post-emergence, 0.25 lb/A; read-out: % plant inhibition
In short: as §2

Blackgrass [24] = experiment: post-emergence herbicide test; details: Alopecurus myosuroides, post-emergence, 0.25 lb/A; read-out: % plant inhibition
In short: as §2

Cocklebur [25] = experiment: post-emergence herbicide test; details: Xanthium strumarium, post-emergence, 0.25 lb/A; read-out: % plant inhibition
In short: as §2

Green Foxtail [26] = experiment: post-emergence herbicide test; details: Setaria viridis, post-emergence, 0.25 lb/A; read-out: % plant inhibition
In short: as §2

Velvetleaf [27] = experiment: post-emergence herbicide test; details: Abutilon theophrasti, post-emergence, 0.25 lb/A; read-out: % plant inhibition
In short: as §2

Morning Glory [28] = experiment: post-emergence herbicide test; details: Ipomoea, post-emergence, 0.25 lb/A; read-out: % plant inhibition
In short: as §2

Bedstraw Catchweed [29] = experiment: post-emergence herbicide test; details: Galium aparine, post-emergence, 0.25 lb/A; read-out: % plant inhibition
In short: as §2

Wheat [30] = experiment: post-emergence herbicide test; details: Triticum aestivum, post-emergence, 0.25 lb/A; read-out: % plant inhibition
In short: as §2

Seedling Johnsongrass [31] = experiment: post-emergence herbicide test; details: Sorghum halepense, post-emergence, 0.25 lb/A; read-out: % plant inhibition
In short: as §2

Corn [32] = experiment: post-emergence herbicide test; details: Zea mays, post-emergence, 0.25 lb/A; read-out: % plant inhibition
In short: as §2

Birdseye Speedwell [33] = experiment: post-emergence herbicide test; details: post-emergence, 0.25 lb/A; read-out: % plant inhibition
In short: as §2

Wild Oats [34] = experiment: post-emergence herbicide test; details: Avena fatua, post-emergence, 0.25 lb/A; read-out: % plant inhibition
In short: as §2

Structure (SMILES)	inhibition at 280.212 g/ha (Common Chickweed [1]) [%]	inhibition at 280.212 g/ha (Rape [2]) [%]	inhibition at 280.212 g/ha (Soybean [3]) [%]	inhibition at 280.212 g/ha (Giant Foxtail [4]) [%]	inhibition at 280.212 g/ha (Downy Brome [5]) [%]	inhibition at 280.212 g/ha (Barnyardgrass [6]) [%]	inhibition at 280.212 g/ha (Blackgrass [7]) [%]	inhibition at 280.212 g/ha (Cocklebur [8]) [%]	inhibition at 280.212 g/ha (Green Foxtail [9]) [%]	inhibition at 280.212 g/ha (Velvetleaf [10]) [%]	inhibition at 280.212 g/ha (Morning Glory [11]) [%]	inhibition at 280.212 g/ha (Bedstraw Catchweed [12]) [%]	inhibition at 280.212 g/ha (Wheat [13]) [%]	inhibition at 280.212 g/ha (Seedling Johnsongrass [14]) [%]	inhibition at 280.212 g/ha (Corn [15]) [%]	inhibition at 280.212 g/ha (Birdseye Speedwell [16]) [%]	inhibition at 280.212 g/ha (Wild Oats [17]) [%]	inhibition at 280.212 g/ha (Common Chickweed [18]) [%]	inhibition at 280.212 g/ha (Rape [19]) [%]	inhibition at 280.212 g/ha (Soybean [20]) [%]	other results
Cc1c(-c2cc(CSCC(C)C)c(Cl)cc2F)nn(C)c1C(F)(F)F [Compound 32]	5	5	8	65	0	5	10	25	40	25	10	5	0	85	5	45	0	20	50	20	inhibition at 280.212 g/ha (Giant Foxtail [21]): 45%; inhibition at 280.212 g/ha (Downy Brome [22]): 25%; inhibition at 280.212 g/ha (Barnyardgrass [23]): 35%; inhibition at 280.212 g/ha (Blackgrass [24]): 25%; inhibition at 280.212 g/ha (Cocklebur [25]): 65%; inhibition at 280.212 g/ha (Green Foxtail [26]): 65%; inhibition at 280.212 g/ha (Velvetleaf [27]): 85%; inhibition at 280.212 g/ha (Morning Glory [28]): 40%; inhibition at 280.212 g/ha (Bedstraw Catchweed [29]): 45%; inhibition at 280.212 g/ha (Wheat [30]): 15%; inhibition at 280.212 g/ha (Seedling Johnsongrass [31]): 45%; inhibition at 280.212 g/ha (Corn [32]): 15%; inhibition at 280.212 g/ha (Birdseye Speedwell [33]): 90%; inhibition at 280.212 g/ha (Wild Oats [34]): 20%
Cc1c(-c2cc(C(=O)OCc3ccccc3)c(Cl)cc2F)nn(C)c1C(F)(F)F [Compound 41]	55	5	0	40	30	50	15	25	100	90	0	60	3	50	0	100	10	98	40	15	inhibition at 280.212 g/ha (Giant Foxtail [21]): 5%; inhibition at 280.212 g/ha (Downy Brome [22]): 30%; inhibition at 280.212 g/ha (Barnyardgrass [23]): 65%; inhibition at 280.212 g/ha (Blackgrass [24]): 20%; inhibition at 280.212 g/ha (Cocklebur [25]): 95%; inhibition at 280.212 g/ha (Green Foxtail [26]): 90%; inhibition at 280.212 g/ha (Velvetleaf [27]): 99%; inhibition at 280.212 g/ha (Morning Glory [28]): 75%; inhibition at 280.212 g/ha (Bedstraw Catchweed [29]): 100%; inhibition at 280.212 g/ha (Wheat [30]): 15%; inhibition at 280.212 g/ha (Seedling Johnsongrass [31]): 70%; inhibition at 280.212 g/ha (Corn [32]): 35%; inhibition at 280.212 g/ha (Birdseye Speedwell [33]): 100%; inhibition at 280.212 g/ha (Wild Oats [34]): 20%
C#CCOC(=O)c1cc(-c2nn(C)c(C(F)(F)F)c2C)c(F)cc1Cl [Compound 42]	40	5	0	0	10	35	15	65	95	65	60	80	0	0	5	30	5	95	40	10	inhibition at 280.212 g/ha (Giant Foxtail [21]): 0%; inhibition at 280.212 g/ha (Downy Brome [22]): 30%; inhibition at 280.212 g/ha (Barnyardgrass [23]): 65%; inhibition at 280.212 g/ha (Blackgrass [24]): 20%; inhibition at 280.212 g/ha (Cocklebur [25]): 85%; inhibition at 280.212 g/ha (Green Foxtail [26]): 40%; inhibition at 280.212 g/ha (Velvetleaf [27]): 98%; inhibition at 280.212 g/ha (Morning Glory [28]): 70%; inhibition at 280.212 g/ha (Bedstraw Catchweed [29]): 100%; inhibition at 280.212 g/ha (Wheat [30]): 15%; inhibition at 280.212 g/ha (Seedling Johnsongrass [31]): 45%; inhibition at 280.212 g/ha (Corn [32]): 25%; inhibition at 280.212 g/ha (Birdseye Speedwell [33]): 95%; inhibition at 280.212 g/ha (Wild Oats [34]): 20%
